Results reported in paper PMC5615911 (Toxicology Reports, 2016).
Where “and” joins values, the source holds several entries; their conditions need not be identical. Identical values can stand only once.

What was measured:
human umami receptor = conditions: cited from earlier work
CYP3A4 = CYP3A4 (Homo sapiens, UniProt P08684); test: CYP inhibition, LC–MS/MS assay in human liver microsomes; conditions: for inhibition at 10 µM: human, human liver microsomes
[1] = 28-day dose-range finding toxicity study; assay type: in vivo, Sprague-Dawley rats; conditions: 10, 30, 100 mg/kg bw/day (food ad-mix)
hERG = hERG (Homo sapiens, UniProt Q12809); test: hERG electrophysiology
Sequence of hERG (Q12809 whole entry): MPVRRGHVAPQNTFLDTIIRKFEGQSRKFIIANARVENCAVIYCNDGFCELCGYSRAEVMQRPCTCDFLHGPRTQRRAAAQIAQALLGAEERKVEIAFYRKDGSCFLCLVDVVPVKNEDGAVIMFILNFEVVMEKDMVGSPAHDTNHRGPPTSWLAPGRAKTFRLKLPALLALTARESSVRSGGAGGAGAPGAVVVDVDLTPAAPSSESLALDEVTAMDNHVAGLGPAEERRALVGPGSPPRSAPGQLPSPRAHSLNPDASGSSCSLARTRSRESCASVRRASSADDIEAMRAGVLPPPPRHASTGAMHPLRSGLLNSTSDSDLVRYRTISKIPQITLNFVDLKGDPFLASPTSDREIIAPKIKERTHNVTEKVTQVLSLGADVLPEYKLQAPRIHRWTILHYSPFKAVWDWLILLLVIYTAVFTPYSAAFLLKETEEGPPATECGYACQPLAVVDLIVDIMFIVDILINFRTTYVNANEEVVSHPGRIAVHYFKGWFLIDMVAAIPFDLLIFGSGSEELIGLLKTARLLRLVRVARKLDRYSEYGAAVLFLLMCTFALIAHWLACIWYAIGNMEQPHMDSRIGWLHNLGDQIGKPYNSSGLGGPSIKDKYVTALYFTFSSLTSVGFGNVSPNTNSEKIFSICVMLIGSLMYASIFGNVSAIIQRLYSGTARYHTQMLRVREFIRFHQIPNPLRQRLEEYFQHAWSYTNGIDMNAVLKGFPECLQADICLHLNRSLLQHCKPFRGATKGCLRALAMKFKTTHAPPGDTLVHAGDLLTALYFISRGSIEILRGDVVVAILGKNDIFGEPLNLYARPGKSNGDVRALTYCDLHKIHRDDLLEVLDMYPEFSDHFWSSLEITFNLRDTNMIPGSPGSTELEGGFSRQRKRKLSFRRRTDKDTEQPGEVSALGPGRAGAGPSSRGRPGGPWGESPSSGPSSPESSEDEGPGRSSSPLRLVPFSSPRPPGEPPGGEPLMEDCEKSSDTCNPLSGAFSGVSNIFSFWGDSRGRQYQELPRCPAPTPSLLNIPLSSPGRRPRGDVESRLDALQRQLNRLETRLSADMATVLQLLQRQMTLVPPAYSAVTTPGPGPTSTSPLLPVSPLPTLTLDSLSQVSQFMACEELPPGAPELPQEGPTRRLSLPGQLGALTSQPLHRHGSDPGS

CYP2C9 = CYP2C9 (Homo sapiens, UniProt P11712); test: CYP inhibition, LC–MS/MS assay in human liver microsomes; conditions: probe tolbutamide
Sequence of CYP2C9 (P11712 whole entry): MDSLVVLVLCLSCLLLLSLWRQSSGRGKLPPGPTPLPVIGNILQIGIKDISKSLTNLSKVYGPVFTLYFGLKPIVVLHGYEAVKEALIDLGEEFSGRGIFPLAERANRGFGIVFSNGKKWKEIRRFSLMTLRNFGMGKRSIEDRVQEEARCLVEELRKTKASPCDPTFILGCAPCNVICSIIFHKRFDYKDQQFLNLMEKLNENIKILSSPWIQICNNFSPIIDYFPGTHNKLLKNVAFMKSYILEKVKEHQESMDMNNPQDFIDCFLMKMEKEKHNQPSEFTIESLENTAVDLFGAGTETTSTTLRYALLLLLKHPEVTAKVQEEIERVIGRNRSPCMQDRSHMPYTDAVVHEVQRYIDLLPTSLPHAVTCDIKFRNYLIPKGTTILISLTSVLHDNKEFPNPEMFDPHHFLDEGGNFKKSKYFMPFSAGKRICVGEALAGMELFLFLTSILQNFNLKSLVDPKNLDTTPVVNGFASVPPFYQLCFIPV

[2] = In vivo metabolism of S3643, single oral dose 100 mg/kg bw; parameters: species or system Sprague-Dawley rats
[3] = In vitro metabolism, human liver microsomes; assay type: in vitro ADME; conditions: 60 min, 10 μM S3643, relative to S3643 peak area at time 0
[4] = Pharmacokinetics of S3643, single iv or oral dose; assay type: in vivo, Sprague-Dawley rats; conditions: for AUC(0-t): AUClast
[5] = both, Sprague-Dawley, rat, plasma, oral, 100 mg/kg bw
[6] = rat plasma at 1 h, males and females combined
[7] = female, Sprague-Dawley, rat, plasma, iv, 1 mg/kg
[8] = female, Sprague-Dawley, rat, plasma, po
[9] = female, Sprague-Dawley, rat, plasma, po, 10 mg/kg
[10] = female, Sprague-Dawley, rat, plasma, po, 30 mg/kg
[11] = female, Sprague-Dawley, rat, plasma, po, 100 mg/kg
[12] = female, iv 1.0 mg/kg bw, 1 mg/kg
[13] = male, Sprague-Dawley, rat, plasma, iv, 1 mg/kg
[14] = male, Sprague-Dawley, rat, plasma, po
[15] = male, Sprague-Dawley, rat, plasma, po, 10 mg/kg
[16] = male, Sprague-Dawley, rat, plasma, po, 30 mg/kg

Sequence of CYP3A4 (P08684 whole entry): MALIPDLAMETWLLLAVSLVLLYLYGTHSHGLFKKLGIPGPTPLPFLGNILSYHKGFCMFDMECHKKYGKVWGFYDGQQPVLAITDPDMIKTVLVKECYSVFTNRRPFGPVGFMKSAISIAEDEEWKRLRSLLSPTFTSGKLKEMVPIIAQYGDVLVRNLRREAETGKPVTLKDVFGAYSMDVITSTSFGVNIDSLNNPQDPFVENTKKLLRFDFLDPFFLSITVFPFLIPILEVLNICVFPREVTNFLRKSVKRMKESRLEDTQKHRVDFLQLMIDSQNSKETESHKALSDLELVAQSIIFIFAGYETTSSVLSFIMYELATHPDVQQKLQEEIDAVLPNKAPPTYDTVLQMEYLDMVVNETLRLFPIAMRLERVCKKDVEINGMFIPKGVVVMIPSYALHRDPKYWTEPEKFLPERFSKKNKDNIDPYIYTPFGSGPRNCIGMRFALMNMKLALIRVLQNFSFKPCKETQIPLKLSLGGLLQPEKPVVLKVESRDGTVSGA

COc1cccc(-c2n[nH]c(SCc3ccccn3)n2)c1OC [S3643, 2-(((3-(2,3-dimethoxyphenyl)-1H-1,2,4-triazol-5-yl)thio)methyl)pyridine]
Concentration lower than MSG for equivalent umami flavour effect (human umami receptor): 1000 fold
IC50 (CYP3A4): > 10 µM
inhibition at 10 µM (CYP3A4): < 50%
inhibition at 10 µM (CYP3A4; probe midazolam): 30%
Findings [1]: No test-article related findings
inhibition at 10 µM (hERG): < 10%
inhibition at 10 µM (CYP2C9): 8%
concentration at 0.25 h [2, 5]: 86000 ng/mL
concentration at 0.5 h [2, 5]: 81400 ng/mL
concentration at 1 h [2, 5]: 55900 ng/mL
concentration at 2 h [2, 5]: 29200 ng/mL
concentration at 4 h [2, 5]: 14100 ng/mL
concentration at 8 h [2, 5]: 4830 ng/mL
concentration at 24 h [2, 5]: 63 ng/mL
% Peak Area [2, 6]: 55.52%
Peak Area (×10^6) [2, 6]: 69.9
% MS Peak Area, Human [3]: 54.9%
Fold increase in AUClast for 10-fold increase in oral dose ([4]; female): 16.8 fold
Tmax [4, 7]: 1.8 min
Vd [4, 7]: 0.325 L/kg
clearance [4, 7]: 8.03 mL/min/kg
half-life [4, 7]: 9.6 min
bioavailability [4, 8]: 67.4 to 116%
half-life [4, 8]: 53.4 to 99.6 min
Tmax [4, 9]: 15 min
bioavailability [4, 9]: 67.4%
half-life [4, 9]: 53.4 min
AUC(0-t) ([4]; female, Sprague-Dawley, rat, plasma, po, 10 mg/kg, oral 10 mg/kg bw): 14200 ng·h/mL
Cmax ([4]; female, Sprague-Dawley, rat, plasma, po, 10 mg/kg, Cmax, oral 10 mg/kg bw): 14900 ng/mL
Tmax [4, 10]: 15 min
bioavailability [4, 10]: 116%
half-life [4, 10]: 68.4 min
AUC(0-t) ([4]; female, Sprague-Dawley, rat, plasma, po, 30 mg/kg, oral 30 mg/kg bw): 73500 ng·h/mL
Cmax ([4]; female, Sprague-Dawley, rat, plasma, po, 30 mg/kg, Cmax, oral 30 mg/kg bw): 45400 ng/mL
Tmax [4, 11]: 22.8 min
bioavailability [4, 11]: 113%
half-life [4, 11]: 99.6 min
AUC(0-t) ([4]; female, Sprague-Dawley, rat, plasma, po, 100 mg/kg, oral 100 mg/kg bw): 239000 ng·h/mL
Cmax ([4]; female, Sprague-Dawley, rat, plasma, po, 100 mg/kg, Cmax, oral 100 mg/kg bw): 98900 ng/mL and 310 µM
CL as % of hepatic blood flow ([4]; female, iv): 14.5%
Vss as % of total body water volume ([4]; female, iv): 48.6%
AUC0-last/dose ([4]; female, iv 1.0 mg/kg bw): 2110 ng·h/mL/mg/kg
AUC0-last [4, 12]: 2110 ± 353 ng·h/mL
Cmax [4, 12]: 9840 ± 1880 ng/mL
AUC0-last/dose ([4]; female, oral gavage 10 mg/kg bw): 1423 ng·h/mL/mg/kg
AUC0-last/dose ([4]; female, oral gavage 30 mg/kg bw): 2450 ng·h/mL/mg/kg
AUC0-last/dose ([4]; female, oral gavage 100 mg/kg bw): 2393 ng·h/mL/mg/kg
Female/male ratio of mean AUClast ([4]; iv 1 mg/kg): 0.76
Female/male ratio of mean Cmax ([4]; iv 1 mg/kg): 0.91
Fold increase in AUClast for 10-fold increase in oral dose ([4]; male): 6.88 fold
Tmax [4, 13]: 1.8 min
Vd [4, 13]: 0.337 L/kg
clearance [4, 13]: 5.97 mL/min/kg
half-life [4, 13]: 11.4 min
bioavailability [4, 14]: 65.7 to 96%
half-life [4, 14]: 48 to 99.6 min
Tmax [4, 15]: 15 min
bioavailability [4, 15]: 95.5%
half-life [4, 15]: 48 min
AUC(0-t) ([4]; male, Sprague-Dawley, rat, plasma, po, 10 mg/kg, oral 10 mg/kg bw): 26600 ng·h/mL
Cmax ([4]; male, Sprague-Dawley, rat, plasma, po, 10 mg/kg, Cmax, oral 10 mg/kg bw): 32500 ng/mL
Tmax [4, 16]: 26.4 min
bioavailability [4, 16]: 96%
half-life [4, 16]: 58.2 min
